According to patent publication US20180162825A1, “NOVEL DGAT2 INHIBITORS” (Eli Lilly and Company, priority 2015, published 2018):

Columns and labels:
[1] = therapy with lomitapide; cited from earlier work
[2] = biological target: T1, human DGAT2 (Homo sapiens, UniProt Q96PD7); experiment: Diacylglycerol Acyltransferase 2 (DGAT2) Cell-Based Assay (HepG2); design: This assay uses human hepatoma cell-line, HepG2, as a source of acyltransferase activity; endogenous in cells; host or cells: HepG2; details: geometric mean; HepG2 cells, incorporation of 13C18-oleate into triolein normalized to POPC; read-out: IC50 (nM) mean ± SD, (n) = number of experiments
T1 sequence (Q96PD7 1-388): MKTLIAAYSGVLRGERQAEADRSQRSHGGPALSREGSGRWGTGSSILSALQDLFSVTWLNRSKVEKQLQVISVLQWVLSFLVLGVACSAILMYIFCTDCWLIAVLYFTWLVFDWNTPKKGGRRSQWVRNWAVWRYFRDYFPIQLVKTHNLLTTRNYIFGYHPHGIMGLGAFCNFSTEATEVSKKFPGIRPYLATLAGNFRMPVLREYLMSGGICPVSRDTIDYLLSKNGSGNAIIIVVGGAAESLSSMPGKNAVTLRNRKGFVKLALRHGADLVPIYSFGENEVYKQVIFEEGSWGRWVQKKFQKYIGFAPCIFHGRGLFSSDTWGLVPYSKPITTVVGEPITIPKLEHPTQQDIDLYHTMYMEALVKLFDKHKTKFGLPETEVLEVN
Method: The inhibitory activity of compounds against human DGAT2 in a cell environment is evaluated in this assay. This assay uses human hepatoma cell-line, HepG2, as a source of acyltransferase activity.
HepG2 cell line is a commonly used model for metabolic reactions that occur in human hepatocytes in vivo. Synthesis of triglyceride in this cell line is followed by measuring incorporation of isotopically labeled oleate into triolein (a triglyceride with 3 oleoyl moieties).
Dispense the HepG2 cells into a 96-well microplate, which has been previously coated with Poly-D-lysine, in an amount of 50,000 cells/well in 100 μL Minimal Essential Media (MEM) with 10% Fetal Bovine Serum (FBS). Incubate the cells for 16 hr at 37° C. Replace the cell culture medium with MEM containing 2% Bovine Serum Albumin. Dissolve the test compound in 0.5% DMSO and prepare serial dilutions in half-log increments. Add the serially diluted test compound into separate wells. Incubate for 0.5 hr at 37° C. Thereafter replace the cell culture medium with a medium of the same composition, but which includes 50 μM ^13C18-oleate and 300 μM hydropropyl-β-cyclodextrine. Incubate for an additional 4 hr at 37° C. Discard the cell culture medium by flipping the microplate over thereby draining the wells and then soaking up any residual media from the wells with a paper towel. Dry the microplate at ambient temperature (˜21° C.) for 10 min. Add aliquots of 125 μL of solvent (isopropyl alcohol:tetrahydrofuran:methanol:chloroform, in a ratio of 90:10:2.5:2.5 v/v), an internal standard for phosphatidylcholine (PC), and an internal standard for triacylglycerol (TG) to each well. Seal and shake the plate for 30 min at ambient temperature. Transfer 100 μL aliquots of the upper phase of each well into a wells of a deep-well plate (2 mL per well). Analyze the contents of the wells using mass-spectrometry analysis. Measure both triolein with a single ^13C18-oleate moiety and POPC using liquid chromatography/mass spectroscopy method (LC/MS). The degree of incorporation of a single ^13C18-oleate moiety into triolein, normalized to the concentration of 1-palmitoyl-2-oleoyl-phosphatidylcholine (POPC) is used as a measure of DGAT2 activity.
Determine the IC50 for each compound, using a 4 parameter logistic curve fit.

[3] = biological target: T1, human DGAT2; experiment: Diacylglycerol Acyltransferase 2 (DGAT2) Biochemical Assay; details: geometric mean; recombinant human DGAT2 with FLAG tag, 1 hr at RT, 14C oleoyl-CoA; read-out: IC50 (nM), ± SD, (n) = number of experiments
Method: The in vitro inhibitory activity of compounds against human DGAT2 is evaluated in this assay. The assay uses recombinant human DGAT2 with a FLAG tag at the amino terminus, expressed in genetically engineered insect SF9 cells, and purified through affinity chromatography.
DGAT2 catalyzes transfer of an acyl moiety from acyl-Coenzyme A onto diacylglycerol, to form triacylglycerol. In this particular embodiment of the assay oleate is used as the acyl moiety that is transferred. To facilitate miscibility of all lipid components, all lipids used in the assay contain oleyl moiety as the only acyl group.
Prior to starting the assay prepare a mixture of dioleoyl glycerol (DOG) and dioleoyl phosphatidylcholine (DOPC) at 3:7 molar ratio. Mix appropriate amount of DOPC and DOG dissolved in chloroform in a borosilicate glass test tube. Evaporate the solvent under stream of argon to form a film of lipid. Subsequently, place the test-tube under vacuum (<1 Torr) for 2 hrs to remove residual solvent. Add appropriate amount of buffer containing TrisHCl (pH 7.5, 150 mM), and sucrose (250 mM) to achieve 20 mM concentration of total lipid. Assure complete suspension of the lipid film by vigorous vortexing. Sonicate the contents of the tube in a water bath sonicator under standing wave conditions until the suspension turns from turbid to translucent, to assure conversion of liposomes into small unilamellar vesicles (SUVs)
Prepare the test compound by dissolving it and serially diluting in half-log increments in DMSO. For each concentration, perform 10-fold step dilution of compound solution in DMSO into buffer containing TrisHCl (pH 7.5, 150 mM), and sucrose (250 mM).
Mix SUV suspensions and compound solution with other components of the assay to achieve the following concentration of individual ingredients: TrisHCl (pH 7.5, 150 mM), sucrose (250 mM), MgCl2 (5 mM,), dithiothreitol (DTT) (0.5 mM), oleoyl coenzyme A (oleoyl-CoA) (12 μM), 1-^14C oleoyl coenzyme A (oleyl-CoA-^14C) (8 μM), dioleoyl glycerol (DOG) (0.6 mM), and dioleoyl phosphatidylcholine (DOPC) (1.4 mM), DGAT2 protein (0.5 nM), DMSO (1%, v/v), with test compound concentration within a 1 nM to 100 μM range, in 30 μl total volume. Incubate the reaction for 1 hr at RT (approximately 21° C.) in individual wells of a 384-well plate. After 1 hr, stop the reaction by adding 23 μl stop solution containing a mixture of isopropanol:EtOH:heptane:DI water: 1 N NaOH (59:12.5:15:11:2.5, by volume). Add 42 μL Microscint E and then incubate mixture overnight to extract the triglyceride into the organic solvent layer containing scintillant. Measure the radioactivity using a Perkin-Elmer TopCount instrument. […] Calculate the degree of inhibition of DGAT2 by measuring the radioactivity at 10 different concentrations for each compound. […]

[4] = test system: LDL-c, VLDL-c and TG serum concentrations; experiment: In Vivo Efficacy Model: LDL-c, VLDL-c and TG in LDL receptor-deficient mice; details: 30 mg/kg bid, fourteen days, oral gavage, vs control group
Description: The compounds described herein can be evaluated in an in vivo efficacy model. This assay measures the potency of compounds by measuring the reduction in low density lipoprotein cholesterol (LDL-c), very low density lipoprotein cholesterol (VLDL-c), and triglycerides (TG). Male, LDL receptor-deficient mice (29 weeks old, each approximately 30 g in weight) are used in this assay.
Feed the mice a standard mouse chow diet for two weeks prior to dosing. Prepare a test solution for oral gavage by suspend the compounds in acacia at 0.3, 1, and 3 mg/mL. Separate the mice into a test group and a control group. Thereafter at the first day of the third week dose the mice in the test group with the test solution for fourteen days, BID. Similarly dose the mice in the control group with just the vehicle without any of the test compound. Four hours after the last dose euthanize the mice with CO2. Immediately collect the blood via cardiac puncture. Isolate the serum to measure serum triglycerides as well as cholesterol in individual lipoprotein fractions. Separate the lipoprotein fractions by known HPLC methods. Determine the cholesterol concentration associated with each lipoprotein fraction by a colorimetric method (Roche Cholesterol/HP Reagent 11875540), using isolated lipoprotein fractions with known cholesterol concentration as standards. Results obtained at the highest dose, can be expressed as the percentage of change in comparison of the LDL-c, VLDL-c and TG serum concentrations of mice in the test group to those of mice n the control group.
The results for the compound of Example 24 at 30 mg/kg bid are listed below in Table 21.

[5] = test system: plasma triglycerides; experiment: In Vivo Pharmacodynamic Assay: reduction in plasma triglycerides in mice; details: Mus musculus, po; male C57BL6 mice, gavage, with 3 mg/kg DGAT1 inhibitor and tyloxapol; reduction in plasma triglycerides vs control; read-out: ED50 (mg/kg) SD
Method: This assay measures the potency of compounds by measuring the reduction in plasma triglycerides in mice treated with the test compounds compared to control animals that are treated only with the vehicle solution. Male, C57BL6 mice (10-11 weeks old, each approximately 22 g in weight) are used in this assay.
Triglycerides synthesized in the liver are secreted into circulation as a component of the Very Low Density Lipoprotein (VLDL). To prevent degradation of triglycerides in circulation by the Lipoprotein Lipase (LPL), this assay uses IV injection of a detergent, tyloxapol, which inhibits activity of LPL. Since another enzyme, DGAT1, participates in the synthesis of liver triglyceride, a saturating dose of a DGAT1 inhibitor (sodium {trans-4-[4-(4-amino-7,7-dimethyl-7H-pyrimido[4,5-b][1,4]oxazin-6-yl)phenyl]cyclohexyl}acetate, IUPAC ACDLABS naming convention, see Dow et al. Bioorg. & Med. Chem., (2011) 21(20), 6122-6128) is also used in this assay. […]
Collect the blood via cardiac puncture into tube containing the anti-coagulant EDTA. […] Freeze the plasma samples on dry ice until they are to be analyzed. […] Reduction in total triglycerides in the test mice is calculated relative to the concentration of triglycerides in the control mice.

SMILES	increase in the liver fat content [1] [fold]	IC50 [2] [nM]	IC50 [3] [nM]	LDL-c % change [4] [%]	Triglycerides % change [4] [%]	VLDL-c % change [4] [%]	ED50 [5] [mg/kg]
O=C(NC1CCN(CCCCC2(C(=O)NCC(F)(F)F)c3ccccc3-c3ccccc32)CC1)c1ccccc1-c1ccc(C(F)(F)F)cc1 [lomitapide]	8	–	–	–	–	–	–
CNS(=O)(=O)Cc1ccc(Oc2cc(CNc3ncc(Cl)cn3)nc(C(F)(F)F)n2)cc1 [Example 10, 1-[4-[6-[[(5-Chloropyrimidin-2-yl)amino]methyl]-2-(trifluoromethyl)pyrimidin-4-yl]oxyphenyl]-N-methyl-methanesulfonamide]	–	17 ± 1	52 ± 27	–	–	–	–
CN1CCN(c2nc(CNc3ncc(Cl)cn3)cc(Oc3ccc(CS(N)(=O)=O)cc3)n2)CC1 [Example 24, [4-[6-[[(5-Chloropyrimidin-2-yl)amino]methyl]-2-(4-methylpiperazin-1-yl)pyrimidin-4-yl]oxyphenyl]methanesulfonamide]	–	9 ± 6	579 ± 169	−61	−56	−74	0.8 ± 0.09
CCc1cnc(NCc2cc(Oc3ccc(CCNS(C)(=O)=O)cc3)nc(N)n2)nc1 [Example 57, N-[2-[4-[2-Amino-6-[[(5-ethylpyrimidin-2-yl)amino]methyl]pyrimidin-4-yl]oxyphenyl]ethyl]methanesulfonamide]	–	53	103 ± 51	–	–	–	0.23 ± 0.03
CCc1cnc(NCc2ccnc(Oc3ccc(CS(N)(=O)=O)cc3F)c2)nc1 [Example 7, [4-[[4-[[(5-ethylpyrimidin-2-yl)amino]methyl]-2-pyridyl]oxy]-3-fluoro-phenyl]methanesulfonamide]	–	36 ± 1	27 ± 15	–	–	–	–
